Assay: mn = molality of the nth substance listed, in mol/kg
Conditions: Liquid, Vibrating tube method

[Cl-].[Li+] [lithium chloride] + CCO
Conditions | mass density [kg/m3]
298.15 K, 120 kPa, m1 = 2.88 | 865.97
298.15 K, 180 kPa, m1 = 0.3023 | 795.82
298.15 K, 210 kPa, m1 = 0.1049 | 789.29
298.15 K, 210 kPa, m1 = 1.222 | 823.5
298.15 K, 250 kPa, m1 = 0.5873 | 804.88
298.15 K, 410 kPa, m1 = 2.022 | 845.2
298.15 K, 5040 kPa, m1 = 0.3023 | 799.96
298.15 K, 5040 kPa, m1 = 2.88 | 869.78
298.15 K, 5120 kPa, m1 = 0.1049 | 793.51
298.15 K, 5230 kPa, m1 = 2.022 | 849.07
298.15 K, 5470 kPa, m1 = 1.222 | 827.84
298.15 K, 5520 kPa, m1 = 0.5873 | 809.31
298.15 K, 9820 kPa, m1 = 1.222 | 831.28
298.15 K, 10030 kPa, m1 = 0.1049 | 797.57
298.15 K, 10050 kPa, m1 = 2.022 | 852.76
298.15 K, 10240 kPa, m1 = 0.3023 | 804.22
298.15 K, 10320 kPa, m1 = 2.88 | 873.67
298.15 K, 10440 kPa, m1 = 0.5873 | 813.28
298.15 K, 14990 kPa, m1 = 1.222 | 835.2
298.15 K, 15030 kPa, m1 = 2.022 | 856.4
298.15 K, 15170 kPa, m1 = 0.5873 | 816.95
298.15 K, 15240 kPa, m1 = 0.1049 | 801.71
298.15 K, 15620 kPa, m1 = 0.3023 | 808.44
298.15 K, 15640 kPa, m1 = 2.88 | 877.37
298.15 K, 19040 kPa, m1 = 1.222 | 838.14
298.15 K, 19250 kPa, m1 = 0.5873 | 819.98
298.15 K, 20050 kPa, m1 = 0.3023 | 811.77
298.15 K, 20060 kPa, m1 = 0.1049 | 805.39
298.15 K, 20120 kPa, m1 = 2.022 | 859.94
298.15 K, 20610 kPa, m1 = 2.88 | 880.65
298.15 K, 25080 kPa, m1 = 2.88 | 883.43
298.15 K, 25410 kPa, m1 = 0.1049 | 809.29
298.15 K, 25460 kPa, m1 = 1.222 | 842.57
298.15 K, 25610 kPa, m1 = 2.022 | 863.54
298.15 K, 25640 kPa, m1 = 0.5873 | 824.52
298.15 K, 25840 kPa, m1 = 0.3023 | 815.92
298.15 K, 30060 kPa, m1 = 0.1049 | 812.53
298.15 K, 30080 kPa, m1 = 2.022 | 866.32
298.15 K, 30110 kPa, m1 = 0.5873 | 827.53
298.15 K, 30190 kPa, m1 = 1.222 | 845.65
298.15 K, 30410 kPa, m1 = 2.88 | 886.56
298.15 K, 30560 kPa, m1 = 0.3023 | 819.15
298.15 K, 35090 kPa, m1 = 2.88 | 889.13
298.15 K, 35410 kPa, m1 = 2.022 | 869.43
298.15 K, 35560 kPa, m1 = 0.5873 | 831.01
298.15 K, 35710 kPa, m1 = 0.1049 | 816.28
298.15 K, 35840 kPa, m1 = 0.3023 | 822.58
298.15 K, 35870 kPa, m1 = 1.222 | 849.13
298.15 K, 39820 kPa, m1 = 0.5873 | 833.6
298.15 K, 39910 kPa, m1 = 0.3023 | 825.1
298.15 K, 39940 kPa, m1 = 2.022 | 871.92
298.15 K, 39980 kPa, m1 = 0.1049 | 818.97
298.15 K, 39980 kPa, m1 = 2.88 | 891.64
298.15 K, 40070 kPa, m1 = 1.222 | 851.57
323.15 K, 120 kPa, m1 = 0.1049 | 767.47
323.15 K, 140 kPa, m1 = 0.3023 | 774.35
323.15 K, 180 kPa, m1 = 2.88 | 845.88
323.15 K, 230 kPa, m1 = 2.022 | 824.57
323.15 K, 240 kPa, m1 = 0.5873 | 783.81
323.15 K, 410 kPa, m1 = 1.222 | 802.86
323.15 K, 5030 kPa, m1 = 0.5873 | 788.42
323.15 K, 5070 kPa, m1 = 1.222 | 807.19
323.15 K, 5140 kPa, m1 = 0.1049 | 772.47
323.15 K, 5210 kPa, m1 = 0.3023 | 779.31
323.15 K, 5410 kPa, m1 = 2.022 | 829.25
323.15 K, 5410 kPa, m1 = 2.88 | 850.34
323.15 K, 10020 kPa, m1 = 0.1049 | 777.11
323.15 K, 10050 kPa, m1 = 0.5873 | 793.02
323.15 K, 10080 kPa, m1 = 2.022 | 833.25
323.15 K, 10080 kPa, m1 = 2.88 | 854.11
323.15 K, 10200 kPa, m1 = 1.222 | 811.76
323.15 K, 10230 kPa, m1 = 0.3023 | 784
323.15 K, 15060 kPa, m1 = 0.3023 | 788.31
323.15 K, 15230 kPa, m1 = 2.022 | 837.42
323.15 K, 15240 kPa, m1 = 2.88 | 858.04
323.15 K, 15290 kPa, m1 = 1.222 | 816.02
323.15 K, 15320 kPa, m1 = 0.1049 | 781.93
323.15 K, 15620 kPa, m1 = 0.5873 | 797.87
323.15 K, 20040 kPa, m1 = 0.1049 | 786.01
323.15 K, 20060 kPa, m1 = 2.88 | 861.48
323.15 K, 20150 kPa, m1 = 1.222 | 819.88
323.15 K, 20410 kPa, m1 = 2.022 | 841.36
323.15 K, 20450 kPa, m1 = 0.3023 | 792.88
323.15 K, 20470 kPa, m1 = 0.5873 | 801.87
323.15 K, 25040 kPa, m1 = 0.3023 | 796.57
323.15 K, 25060 kPa, m1 = 0.1049 | 790.15
323.15 K, 25060 kPa, m1 = 1.222 | 823.57
323.15 K, 25140 kPa, m1 = 0.5873 | 805.52
323.15 K, 25300 kPa, m1 = 2.88 | 864.98
323.15 K, 25310 kPa, m1 = 2.022 | 844.84
323.15 K, 30010 kPa, m1 = 2.022 | 847.97
323.15 K, 30060 kPa, m1 = 0.3023 | 800.4
323.15 K, 30060 kPa, m1 = 0.5873 | 809.15
323.15 K, 30070 kPa, m1 = 2.88 | 867.94
323.15 K, 30150 kPa, m1 = 0.1049 | 794.13
323.15 K, 30420 kPa, m1 = 1.222 | 827.32
323.15 K, 35020 kPa, m1 = 0.3023 | 803.97
323.15 K, 35210 kPa, m1 = 2.88 | 870.9
323.15 K, 35220 kPa, m1 = 0.5873 | 812.74
323.15 K, 35410 kPa, m1 = 1.222 | 830.59
323.15 K, 35420 kPa, m1 = 2.022 | 851.3
323.15 K, 35610 kPa, m1 = 0.1049 | 798.15
323.15 K, 39860 kPa, m1 = 2.88 | 873.36
323.15 K, 39940 kPa, m1 = 0.1049 | 801.15
323.15 K, 39960 kPa, m1 = 1.222 | 833.36
323.15 K, 39970 kPa, m1 = 0.5873 | 815.82
323.15 K, 39970 kPa, m1 = 2.022 | 853.89
323.15 K, 39980 kPa, m1 = 0.3023 | 807.32
348.15 K, 140 kPa, m1 = 0.1049 | 743.86
348.15 K, 150 kPa, m1 = 2.022 | 803.25
348.15 K, 170 kPa, m1 = 0.3023 | 751.06
348.15 K, 420 kPa, m1 = 1.222 | 780.84
348.15 K, 540 kPa, m1 = 2.88 | 825.55
348.15 K, 740 kPa, m1 = 0.5873 | 761.48
348.15 K, 4960 kPa, m1 = 2.022 | 808.25
348.15 K, 5060 kPa, m1 = 0.3023 | 756.68
348.15 K, 5060 kPa, m1 = 0.5873 | 766.32
348.15 K, 5060 kPa, m1 = 1.222 | 785.85
348.15 K, 5080 kPa, m1 = 0.1049 | 749.63
348.15 K, 5140 kPa, m1 = 2.88 | 829.96
348.15 K, 10030 kPa, m1 = 2.022 | 813.19
348.15 K, 10060 kPa, m1 = 0.1049 | 755.18
348.15 K, 10070 kPa, m1 = 0.3023 | 762.15
348.15 K, 10080 kPa, m1 = 2.88 | 834.46
348.15 K, 10210 kPa, m1 = 1.222 | 791.09
348.15 K, 10530 kPa, m1 = 0.5873 | 772.13
348.15 K, 14960 kPa, m1 = 2.022 | 817.67
348.15 K, 15060 kPa, m1 = 2.88 | 838.73
348.15 K, 15120 kPa, m1 = 0.3023 | 767.36
348.15 K, 15280 kPa, m1 = 1.222 | 795.92
348.15 K, 15290 kPa, m1 = 0.5873 | 776.89
348.15 K, 15410 kPa, m1 = 0.1049 | 760.81
348.15 K, 20030 kPa, m1 = 2.022 | 821.94
348.15 K, 20060 kPa, m1 = 0.1049 | 765.44
348.15 K, 20070 kPa, m1 = 2.88 | 842.77

Source: the NIST ThermoML archive (doi:10.1021/je700438d)
